{"source": "patent US9109041B2", "about": "“Analog compounds of analgesic peptides derived from the venom of crotalus durissus terrificus snakes, their uses, compositions, methods of preparation and purification” (priority 2004, dated 2015)", "key": {"[1]": {"test_system": "spontaneous pain induced by the Walker 256 tumor", "experiment": "spontaneous pain induced by the Walker 256 tumor (lifting, licking)", "format": "in vivo, rat", "conditions": "6 μg/kg p.o.", "from_the_text": "The Walker 256 tumor cells were kindly provided by Prof. Dr. Rui Curi, of the Physiology and Biophysics Department of the Biomedical Science Institute of the University of São Paulo. The tumor-bearing animal was sacrificed and the tumoral tissue was removed, placed on a Petri dish containing 0.9% saline. Then, the tumor was cut in smaller parts, and transferred into a beaker containing saline. The material was triturated with a fine-cut, until the tumor is totally fragmented. Then, this material was filtered in gauze and the liquid collected in a beaker. All procedures were performed on ice. The material of the beaker was transferred to 50 ml plastic tubes and centrifuged at 4° C., for 10 minutes, at 1200 rpm. After centrifugation, the supernatant was rejected and the precipitate resuspended in saline 0.9%. For cell counts, the suspension of cells was diluted (1:100) in saline. An aliquot (200 μl) was removed and placed in a test tube containing 200 μl of 1% Trypan blue. The cell number was determined in optical microscope using Neubauer's chamber. The cellular viability was determined considering viable the light-refracting cells.\nAfter determining the number of cells, 1 ml of the suspension, containing 1×10^7 cells, was injected by intraperitoneal route, on the right side of the rats to obtain liquid tumor (ascites).\nFive days after injection, the rats with ascites were sacrificed and the ascetic fluid collected from the peritoneal cavity and placed in a test tube containing EDTA. The liquid was diluted 100 times with phosphate-buffered saline (PBS), pH 7.4. The cell count was done after dilution with Trypan blue, as described above. Tumor cell count was ascertained to 1×10^6 cells in 100 μl, by dilution with PBS. This number of cells was determined in preliminary tests for induction of cancer pain in rats. In this final cell number adjustment, the volume of antibiotic (Benzetacil®) added to the suspension (150,000 units of antibiotic/10 ml of suspension), was taken into consideration. The antibiotic was used in order to avoid microbial contamination. The cells were injected by intraplantar route into one of the rat hind paws. Control animals were injected with PBS into the contralateral paw, in the same experimental conditions.\nHyperalgesia, allodynia and spontaneous pain were determined before (BM-basal measurement) and 5 days after tumor cell injection, before (IM-initial measurement) and 2 hours after (FM-Final measurement) peptide administration.\nThe results were analyzed comparing the mean values of the basal and initial measurements, or of the initial and final measurements or, when determined, by comparing the mean values obtained in the different experimental groups (Tables 17, 18, 19)."}, "[2]": {"test_system": "spontaneous pain induced by constriction of the sciatic nerve", "experiment": "spontaneous pain induced by constriction of the sciatic nerve (licking and lifting time)", "format": "in vivo, rat", "conditions": "5 μg/kg p.o.", "description": "For the induction of neuropathic pain, surgery was performed in the sciatic nerve, in accordance with the method described by Bennett, G. J and Xie, Y. K. (Pain, 33:87-107, 1988). The animals were anesthetized with halothane. The sciatic nerve was exposed in the middle region of the thigh, moving away the femoral biceps muscle. Close to the trifurcation of the sciatic nerve, 7 mm of distance from the trifurcation, 4 loose ligations were performed (chromed catgut 4-0) around it, distant from each other in approximately 1 mm. The bindings were performed along the nerve, up to 4-5 mm from the initial point. The incision was sutured in layers, using silk suture thread number 4-0.\nFor the observation of the signs that characterize spontaneous pain, the animals were placed one by one, in a transparent plastic box. After the acclimatizing period of 30 minutes, the rats were observed during 10 minutes, determining the duration of the licking (in seconds) and lifting time. The licking and lifting activities, performed as part of the normal grooming behavior of animals, were not considered."}, "[3]": {"test_system": "thermal nociception (hot plate 50° C.)", "experiment": "hot plate test", "format": "in vivo, mice", "conditions": "for latency time (reaction time), FM (s) ± S.E.M.: 2 hours after treatment; for latency time (reaction time), IM (s) ± S.E.M.: before treatment", "description": "This test is used for evaluation of drugs that interfere with nociception in the Central Nervous System, as for example, morphine and derived products, since the thermal stimulus activates directly the nociceptor, avoiding tissue lesion and consequent inflammation. The data obtained in this test indicate that the antinociceptive effect of a compound is mainly due to a supraspinally integrated response.\nThis test was performed in accordance to the method described by Jacob, J. J. C. and Ramabadran, K. (Br. J. Pharmacol., 64:91-8, 1978). For this test, mice were placed on a metal surface kept at 50° C.±1. Results are expressed as the latency time (in seconds—s) to observe the licking of both anterior feet (reaction time). This test was applied before (initial measurement—IM) and 2 hours after the treatment of the animals (final measurement—FM) with saline (control) or with the synthetic peptide (1 and 3 μg/kg in 200 μl), orally. Each animal was considered as their own control. The results were analyzed comparing the mean values of the IM and FM or, when determined, by comparing the mean values obtained in the different experimental groups (Table 22)."}, "[4]": {"conditions": "5th day after tumor implantation, 2 hours after peptide"}, "[5]": {"conditions": "5th day after tumor implantation, before peptide"}, "[6]": {"conditions": "day 14 after surgery, before peptide, 10 min observation"}}}
{"substance": "Xaa-Phe-Ser-Pro-Glu-Asn-Cys-Gln-Gly-Glu-Ser-Gln-Pro-Cys [SEQ ID NO: 2]", "values": [{"measurement": "Licking duration, FM", "setting": "[1]; [4]", "value": "1.6 ± 0.81", "unit": "s"}, {"measurement": "Lifting duration, FM", "setting": "[1]; [4]", "value": "25 ± 7.72", "unit": "s"}, {"measurement": "Licking duration, IM", "setting": "[1]; [5]", "value": "15 ± 1.46", "unit": "s"}, {"measurement": "Lifting duration, IM", "setting": "[1]; [5]", "value": "204 ± 30.74", "unit": "s"}, {"measurement": "Licking duration, BM", "setting": "[1]; before injection of the tumor", "value": "0 ± 0.00", "unit": "s"}, {"measurement": "Lifting duration, BM", "setting": "[1]; before injection of the tumor", "value": "0 ± 0.00", "unit": "s"}, {"measurement": "lifting time, FM 1 h", "setting": "[2]; 1 h after peptide", "value": "2 ± 0.21", "unit": "s"}, {"measurement": "paw licking time, FM 1 h", "setting": "[2]; 1 h after peptide", "value": "2 ± 0.21", "unit": "s"}, {"measurement": "lifting time, FM 3 h", "setting": "[2]; 3 h after peptide", "value": "2 ± 0.26", "unit": "s"}, {"measurement": "paw licking time, FM 3 h", "setting": "[2]; 3 h after peptide", "value": "2 ± 0.21", "unit": "s"}, {"measurement": "lifting time, FM 24 h", "setting": "[2]; 24 h after peptide", "value": "2 ± 0.22", "unit": "s"}, {"measurement": "paw licking time, FM 24 h", "setting": "[2]; 24 h after peptide", "value": "2 ± 0.39", "unit": "s"}, {"measurement": "lifting time, FM 48 h", "setting": "[2]; 48 h after peptide", "value": "1.0 ± 0.16", "unit": "s"}, {"measurement": "paw licking time, FM 48 h", "setting": "[2]; 48 h after peptide", "value": "1.5 ± 0.22", "unit": "s"}, {"measurement": "lifting time, FM 72 h", "setting": "[2]; 72 h after peptide", "value": "2 ± 0.26", "unit": "s"}, {"measurement": "paw licking time, FM 72 h", "setting": "[2]; 72 h after peptide", "value": "1.5 ± 0.22", "unit": "s"}, {"measurement": "lifting time, FM 96 h", "setting": "[2]; 96 h after peptide", "value": "1.5 ± 0.16", "unit": "s"}, {"measurement": "paw licking time, FM 96 h", "setting": "[2]; 96 h after peptide", "value": "21 ± 0.26", "unit": "s"}, {"measurement": "lifting time, FM 120", "setting": "[2]; 120 h after peptide", "value": "95 ± 0.50", "unit": "s"}, {"measurement": "paw licking time, FM 120", "setting": "[2]; 120 h after peptide", "value": "21 ± 0.38", "unit": "s"}, {"measurement": "lifting time, IM", "setting": "[2]; [6]", "value": "97 ± 0.43", "unit": "s"}, {"measurement": "paw licking time, IM", "setting": "[2]; [6]", "value": "22 ± 0.64", "unit": "s"}, {"measurement": "latency time (reaction time), FM (s) ± S.E.M.", "setting": "[3]; 1 μg/kg p.o.", "value": "25 ± 0.68", "unit": "s"}, {"measurement": "latency time (reaction time), IM (s) ± S.E.M.", "setting": "[3]; 1 μg/kg p.o.", "value": "18 ± 0.64", "unit": "s"}, {"measurement": "latency time (reaction time), FM (s) ± S.E.M.", "setting": "[3]; 3 μg/kg p.o.", "value": "27 ± 1.06", "unit": "s"}, {"measurement": "latency time (reaction time), IM (s) ± S.E.M.", "setting": "[3]; 3 μg/kg p.o.", "value": "22 ± 1.01", "unit": "s"}]}
